Measured values from BindingDB's records for PubMed 3010074 (Warner-Lambert/Parke-Davis Pharmaceutical Research, 1986).

What was measured:
Adenosine receptor A2a [1] = target: Adenosine receptor A2a (Rattus norvegicus, UniProt P30543)
Adenosine receptor A2a [2] = target: Adenosine receptor A2a (Homo sapiens, UniProt P29274)
Sequence of Adenosine receptor A2a (Homo sapiens, UniProt P29274) (P29274 whole entry): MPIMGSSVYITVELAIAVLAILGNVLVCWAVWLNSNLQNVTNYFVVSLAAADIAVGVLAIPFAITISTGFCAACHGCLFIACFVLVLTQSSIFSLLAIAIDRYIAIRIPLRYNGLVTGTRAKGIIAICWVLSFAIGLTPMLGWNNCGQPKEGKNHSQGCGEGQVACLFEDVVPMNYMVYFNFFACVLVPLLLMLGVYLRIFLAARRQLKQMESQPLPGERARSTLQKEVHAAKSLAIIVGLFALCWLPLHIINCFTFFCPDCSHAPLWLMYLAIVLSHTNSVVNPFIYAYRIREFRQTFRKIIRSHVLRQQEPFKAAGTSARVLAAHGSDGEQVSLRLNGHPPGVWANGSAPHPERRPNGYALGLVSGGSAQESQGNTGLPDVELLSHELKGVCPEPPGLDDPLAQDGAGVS

Sequence of Adenosine receptor A2a (Rattus norvegicus, UniProt P30543) (P30543 whole entry): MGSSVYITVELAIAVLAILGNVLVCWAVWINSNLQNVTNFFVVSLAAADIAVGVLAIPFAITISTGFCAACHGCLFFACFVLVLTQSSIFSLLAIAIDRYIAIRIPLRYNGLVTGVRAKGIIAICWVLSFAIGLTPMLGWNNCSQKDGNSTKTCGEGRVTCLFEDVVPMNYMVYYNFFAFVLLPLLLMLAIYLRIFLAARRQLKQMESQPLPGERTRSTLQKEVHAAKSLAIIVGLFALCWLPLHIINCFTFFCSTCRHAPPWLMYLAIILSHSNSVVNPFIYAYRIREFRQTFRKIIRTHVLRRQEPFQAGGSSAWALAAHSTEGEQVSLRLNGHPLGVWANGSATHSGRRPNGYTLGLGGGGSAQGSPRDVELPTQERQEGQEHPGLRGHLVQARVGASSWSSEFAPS

Ki (Adenosine receptor A2a [1]) | Ki (Adenosine receptor A2a [2]) | Compound
> 10 µM |  | O=c1[nH]c2c(ncn2[C@@H]2O[C@H](CO)[C@@H](O)[C@H]2O)c2nccn12 [1,N6-Ehteno-2-oxoado]
 | 1.58 µM | Cn1c(=O)c2nc(-c3cccs3)[nH]c2n(C)c1=O [CAS_267102]
 | > 10 µM | CCCCn1c(=O)c2c(ncn2C)n(C)c1=O [NSC_70835]
0.335 µM |  | Nc1ncnc2c1ncn2[C@@H]1O[C@H](CO[N+](=O)[O-])[C@@H](O)[C@H]1O [5'-O-Nitroado]
 | > 10 µM | CC(C)Cn1c(=O)n(C)c(=O)c2[nH]cnc21 [1-methyl-3-(2-methylpropyl)-2,3,6,7-tetrahydro-1H-purine-2,6-dione]
 | 0.391 µM | Cn1c(=O)c2[nH]c(-c3ccc(N)cc3)nc2n(C)c1=O
> 10 µM |  | CNc1ncnc2c1ncn2[C@H]1C[C@H](O)[C@@H](CO)O1 [2'-Deoxy-N6-methylado]
 | 2.24 µM | CCCCNc1c(C(=O)OCC)cnc2c1cnn2CC [ethyl 4-(butylamino)-1-ethyl-1H-pyrazolo[3,4-b]pyridine-5-carboxylate]
1.1 µM |  | CSC[C@H]1O[C@@H](n2cnc3c(N)ncnc32)[C@H](O)[C@@H]1O [(2R,3R,4S,5S)-2-(6-aminopurin-9-yl)-5-(methylsulfanylmethyl)oxolane-3,4-diol]
 | 2.72 µM | O=c1nc2[nH]c3ccccc3nc-2c(=O)[nH]1
 | 7.26 µM | Cn1c(=O)c2[nH]c(-c3ccc(C(=O)O)cc3)nc2n(C)c1=O [8-(4-Carboxyphenyl)theophylline]
4.3 µM |  | Nc1ncnc2c1ncn2[C@@H]1O[C@H](NC(=O)C2CCCCC2)[C@@H](O)[C@H]1O [Ado-5'-cyclohexylcarboxamide]
0.387 µM |  | CCC(=O)OC[C@H]1O[C@@H](n2cnc3c(N)ncnc32)[C@H](O)[C@@H]1O [Ado-5'-ethylcarboxylate]
 | 1.43 µM | Cn1c(=O)c2nc(-c3ccccc3N)[nH]c2n(C)c1=O [8-(2-Aminophenyl)theophylline]
 | > 10 µM | CCn1c(=O)c2c(ncn2C)n(C)c1=O [NSC_93219]
1.88 µM |  | CSC[C@H]1O[C@@H](n2cnc3c(N)nc(Cl)nc32)[C@H](O)[C@@H]1O [2-Chloro-5'-methylthioado]
 | 1.56 µM | CCCCNc1c(C(=O)OCC)c(C)nc2c1cnn2CC [NSC_5522]
 | 2.52 µM | Cn1c(=O)c2[nH]c(-c3ccc([N+](=O)[O-])cc3)nc2n(C)c1=O [8-(4-Nitrophenyl)theophylline]
0.605 µM |  | COc1ccc(-c2nc(N)c3ncn([C@@H]4O[C@H](CO)[C@@H](O)[C@H]4O)c3n2)cc1 [2-(4-Methoxyphenyl)ado (CV-1674)]

Ki (Adenosine receptor A2a [1]) | Ki (Adenosine receptor A2a [2]) | Compound
0.12 µM |  | NC(=O)OC[C@H]1O[C@@H](n2cnc3c(N)ncnc32)[C@H](O)[C@@H]1O [Ado-5'-carboxamide]
4.51 µM |  | CC(=O)OCC1O[C@@H](n2cnc3c(N)ncnc32)[C@H](O)[C@@H]1O (some centres undefined) [5'-O-Acetylado]
 | > 10 µM | CCn1c(=O)c2nc[nH]c2n(CC)c1=O [NSC_101420]
0.285 µM |  | OC[C@H]1O[C@@H](n2cnc3c(NCc4ccccc4)ncnc32)[C@H](O)[C@@H]1O [N6-benzylado]
 | 0.371 µM | Cn1c(=O)c2[nH]c(-c3ccc(Cl)cc3)nc2n(C)c1=O
3.25 µM |  | Cn1c(N)c2ncn([C@@H]3O[C@H](CO)[C@@H](O)[C@H]3O)c2nc1=O [1-Methyl-2-oxoado]
 | 0.214 µM | CCCn1c(=O)c2nc(-c3ccc(N)cc3N)[nH]c2n(CCC)c1=O
0.331 µM |  | Nc1nc(=O)[nH]c2c1ncn2[C@@H]1O[C@H](CO)[C@@H](O)[C@H]1O [CAS_1818-71-9]
0.0575 µM |  | NC(=O)CCOC[C@H]1O[C@@H](n2cnc3c(N)ncnc32)[C@H](O)[C@@H]1O [Ado-5'-(2-hydroxyethyl)carboxamide]
 | > 10 µM | CCCc1nc2c([nH]1)c(=O)n(C)c(=O)n2C
 | 0.419 µM | COc1ccc(-c2nc3c([nH]2)c(=O)n(C)c(=O)n3C)cc1 [8-(4-methoxyphenyl)-1,3-dimethyl-1H-purine-2,6(3H,7H)-dione]
 | 0.0919 µM | CCCn1c(=O)c2[nH]c(-c3ccc(Cl)cc3N)nc2n(CCC)c1=O [NSC_92411]
 | > 10 µM | Cn1c(=O)[nH]c2nc[nH]c2c1=O [1-Methyl-3,9-dihydro-purine-2,6-dione(1-methylxanthine)]
> 10 µM |  | Nc1nccc2c1SCN2[C@@H]1O[C@H](CO)[C@@H](O)[C@H]1O [7-Thia-9deazaado]
> 10 µM |  | Nc1nccc2c1ncn2[C@@H]1O[C@H](CO)[C@@H](O)[C@H]1O [CAS_6736-58-9]
0.462 µM |  | Nc1nc(NC2CCCC2)nc2c1ncn2[C@@H]1O[C@H](CO)[C@@H](O)[C@H]1O
 | > 10 µM | Cn1c(=O)c2[nH]c(-c3ccc(S(=O)(=O)O)cc3)nc2n(C)c1=O [4-(1,3-Dimethyl-2,6-dioxo-2,3,6,7-tetrahydro-1H-purin-8-yl)-benzenesulfonic acid]
0.0134 µM |  | Nc1ncnc2c1ncn2[C@@H]1O[C@H](CNC(=O)C2CC2)[C@@H](O)[C@H]1O [Ado-5'-cyclopropylcarboxamide]

Compound | Ki (Adenosine receptor A2a [1]) | Ki (Adenosine receptor A2a [2])
Cn1c(=O)c2c(ncn2CCCl)n(C)c1=O [7-(2-Chloroethyl)theophylline] |  | > 10 µM
Nc1ncnc2c1ncn2[C@@H]1O[C@H](CI)[C@@H](O)[C@H]1O [5'-Deoxy-5'-iodoado] | 0.637 µM | 
